Reference: patent publication US11311523B2, “Pyridinone compound and use thereof” (KYUSHU UNIVERSITY, NATIONAL UNIVERSITY CORPORATION, priority 2015, dated 2022)
pIC50: −log10 of the molar value.

Columns and labels:
[1] = system: primary mouse embryonic fibroblasts (MEFs); assay: inhibition of ruffle formation after PDGF stimulation; type: cell-based; details: 1 hour pretreatment
Description: Pharmacological Test 4 (Experiment on Inhibition of Ruffle Formation in Primary Mouse Embryonic Fibroblasts)
As disclosed in NPL 2, stimulation of primary mouse embryonic fibroblasts (MEFs) with a growth factor, such as PDGF, induces actin cytoskeletal remodeling, leading to the formation of two types of characteristic cellular membrane structures, peripheral ruffles and dorsal ruffles.
The peripheral ruffle and dorsal ruffle formation depends on Rac activation and requires the functions of DOCK1 and DOCK5. Importantly, it is known that the peripheral ruffle formation requires the functions of both DOCK1 and DOCK5 while the dorsal ruffle formation requires the function of DOCK1.
Therefore, the use of various pyridinone compounds in this assay system enables cell-level verification of DOCK1 selectivity.
Wild-type MEFs or MEFs from DOCK1-deficient (D1KO) mouse (obtained by the method disclosed in NPL 2) were suspended in DMEM (with 10% FBS) to a concentration of 2×10^4 cells/mL, and 150 μL of the resulting product was seeded on the glass portion of fibronectin-coated glass-bottom culture dishes.
After 36-hour culture at 37° C., the medium was changed to DMEM (serum free) containing 0.1% BSA, and 12-hour culture was performed to allow the cells to be serum-starved. Subsequently, the medium was changed to 100 μL of DMEM (serum free) containing DMSO in which each pyridinone compound or CPYPP was dissolved at a predetermined concentration, followed by pretreatment for 1 hour. A control was prepared using a culture medium to which DMSO was added alone. In all of the experiments, the final concentration of DMSO was adjusted to 0.2%.
Thereafter, 100 μL of DMEM that was warmed beforehand to 37° C. (serum free, containing 60 ng/mL of PDGF) was added to the above pretreated cells to stimulate the cells, followed by incubation at 37° C. for 7 minutes and further incubation at room temperature for 10 minutes in 150 μL of 4% paraformaldehyde solution to fix the cells. Then, PBS (containing 0.2% Triton X-100) was added to the fixed cells, and a 5-min incubation at room temperature was performed to permeabilize the cellular membranes. Thereafter, the cells were blocked with BSA, and the actin cytoskeleton was stained with Alexa Fluor 546-labeled phalloidin. Using a Zeiss LSM510 meta confocal laser scanning microscope, the number of cells in which peripheral ruffles and dorsal ruffles were formed was observed and counted.

[2] = molecular target: T1, DHR-2 domain of DOCK2 (Homo sapiens, UniProt Q92608); assay: in vitro GEF assay (Bodipy-FL-GTP loading of Rac); type: biochemical; details: FIG. 11
T1 construct: Polypeptide fragments that correspond to the DHR-2 domain of DOCK1, DOCK2, or DOCK5; Histidine-SUMO (N); made in house; host or cells: E. coli Arctic express (DE3)
T1 sequence (Q92608 1211-1622 limits assumed): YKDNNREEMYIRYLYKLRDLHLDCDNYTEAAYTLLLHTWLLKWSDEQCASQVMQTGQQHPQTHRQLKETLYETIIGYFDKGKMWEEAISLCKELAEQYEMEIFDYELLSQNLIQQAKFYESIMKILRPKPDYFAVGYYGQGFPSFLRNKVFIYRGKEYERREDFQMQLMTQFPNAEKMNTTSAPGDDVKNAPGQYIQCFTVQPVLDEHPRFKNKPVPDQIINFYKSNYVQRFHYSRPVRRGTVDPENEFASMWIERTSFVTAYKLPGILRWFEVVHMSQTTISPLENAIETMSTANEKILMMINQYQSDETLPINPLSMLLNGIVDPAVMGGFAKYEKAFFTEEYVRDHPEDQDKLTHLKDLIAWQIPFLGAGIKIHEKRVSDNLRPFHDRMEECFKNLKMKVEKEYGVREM
Description: (§1) Pharmacological Test 1 (In Vitro GEF Assay)
(§2) DOCK1, DOCK2, and DOCK5, which are DOCK-A subfamily members, catalyze the GTP-GDP exchange reaction for Rac via the DHR-2 domain to activate Rac.
(§3) The in vitro GEF assay referred to in this specification used a labeled GTP (Bodipy-FL-GTP, Invitrogen), whose fluorescence intensity increases when bound to Rac.
(§4) Polypeptide fragments that correspond to the DHR-2 domain of DOCK1, DOCK2, or DOCK5 were expressed in E. coli Arctic express (DE3) cells as N-terminal Histidine-SUMO tag-fused recombinant proteins and purified by affinity column chromatography on nickel-NTA columns.
(§5) Rac was expressed in E. coli BL21 (DE3) cells as an N-terminal GST tag-fused recombinant protein and purified by affinity column chromatography on glutathione-Sepharose columns.
(§6) Subsequently, a reaction solution A containing 20 mM of MES-NaOH, 150 mM of NaCl, 10 mM of MgCl2, and 20 μM of GDP, and having an adjusted pH of 7.0 was incubated at room temperature for 30 minutes while being protected from light in the presence of each of the polypeptide fragments (DHR-2 domains) prepared above and each pyridinone compound or CPYPP dissolved at a predetermined concentration in DMSO or DMSO alone (control) to thus prepare GEF pretreated products. In all of the samples, the final DMSO concentration was adjusted to 3%.
(§7) Thereafter, 15 μM of Rac prepared above was added to the reaction solution A and directly allowed to stand on ice for 30 minutes to form a GDP-Rac complex.
(§8) Bodipy-FL-GTP was added to 100 μL of the reaction solution A containing the thus prepared GDP-Rac complex to a concentration of 3.6 μM, followed by equilibration at 30° C. for 2 minutes. After equilibration, 50 μL of the pretreated GEF was added for reaction at 30° C.
(§9) Changes in fluorescence intensity of Bodipy-FL-GTP were monitored during the reaction using an XS-N (Molecular Devices) or an Enspire spectrofluorometer (Perkin Elmer) (excitation wavelength: 488 nm, emission wavelength: 514 nm). The measured values were corrected so that the fluorescence intensity at the time that the reaction was initiated (0 seconds) was 0.
(§10) Then, an approximate curve (hyperbola) was obtained by plotting the calculated correction values on the y axis and the time (t) on the x axis using GraphPad Prism5 (GraphPad software), and the slope at t=0 to 10 seconds was considered to be an initial velocity of guanine nucleotide exchange reaction. The IC50 value was calculated taking the initial reaction velocity of the control, to which only a solvent (DMSO) was added, as 100%.

[3] = molecular target: T2, DHR-2 domain of DOCK5 (Homo sapiens, UniProt Q9H7D0); assay: in vitro GEF assay (Bodipy-FL-GTP loading of Rac); type: biochemical; details: FIG. 11
T2 construct: Polypeptide fragments that correspond to the DHR-2 domain of DOCK1, DOCK2, or DOCK5; Histidine-SUMO (N); made in house; host or cells: E. coli Arctic express (DE3)
T2 sequence (Q9H7D0 1231-1642 limits assumed): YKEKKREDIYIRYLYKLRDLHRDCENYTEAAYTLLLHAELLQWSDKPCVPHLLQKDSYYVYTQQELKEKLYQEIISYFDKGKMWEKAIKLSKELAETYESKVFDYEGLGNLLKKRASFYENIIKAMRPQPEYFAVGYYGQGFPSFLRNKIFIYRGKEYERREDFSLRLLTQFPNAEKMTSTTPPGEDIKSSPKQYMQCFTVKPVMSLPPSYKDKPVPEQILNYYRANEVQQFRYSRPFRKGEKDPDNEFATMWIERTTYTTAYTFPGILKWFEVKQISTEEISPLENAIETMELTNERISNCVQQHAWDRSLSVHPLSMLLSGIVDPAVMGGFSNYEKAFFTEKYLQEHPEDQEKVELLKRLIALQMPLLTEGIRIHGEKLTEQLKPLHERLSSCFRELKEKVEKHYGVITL
Description: as §1, §2, §3, §4, §5, §6, §7, §8, §9, §10

[4] = molecular target: T3, DHR-2 domain of DOCK1 (Homo sapiens, UniProt Q14185); assay: in vitro GEF assay (Bodipy-FL-GTP loading of Rac); type: biochemical
T3 construct: Polypeptide fragments that correspond to the DHR-2 domain of DOCK1, DOCK2, or DOCK5; Histidine-SUMO (N); made in house; host or cells: E. coli Arctic express (DE3)
T3 sequence (Q14185 1207-1617 limits assumed): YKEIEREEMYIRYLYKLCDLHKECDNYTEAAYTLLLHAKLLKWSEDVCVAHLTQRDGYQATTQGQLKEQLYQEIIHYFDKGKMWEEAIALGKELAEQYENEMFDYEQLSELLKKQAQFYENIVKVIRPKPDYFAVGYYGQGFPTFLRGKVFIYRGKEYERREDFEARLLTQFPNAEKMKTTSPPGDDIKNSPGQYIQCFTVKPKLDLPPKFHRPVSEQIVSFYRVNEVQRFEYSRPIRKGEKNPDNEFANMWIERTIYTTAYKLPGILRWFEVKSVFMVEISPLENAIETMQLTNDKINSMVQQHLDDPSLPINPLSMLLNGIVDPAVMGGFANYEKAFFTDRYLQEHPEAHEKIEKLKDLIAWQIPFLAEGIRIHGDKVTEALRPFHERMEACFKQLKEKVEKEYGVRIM
Description: as §1, §2, §3, §4, §5, §6, §7, §8, §9, §10

[5] = system: mouse lung carcinoma cell line (3LL); assay: cellular invasion inhibition assay (Matrigel chamber); type: cell-based; details: 3LL cells, 22 hours, compared to DMSO
Protocol: Pharmacological Test 2 (Cellular Invasion Inhibition Assay)
Three hundred microliters of a suspension of a mouse lung carcinoma cell line (3LL), a human fibrosarcoma cell line (HT-1080), or a human colon cancer cell line (DLD-1) in DMEM (serum free) was placed in the upper chamber with Matrigel (BD Biosciences) equilibrated with DMEM (serum free) for 120 minutes, while 500 μL of DMEM (with 10% FCS) was placed in the lower chamber. Each pyridinone compound or CPYPP dissolved at a predetermined concentration in DMSO was added to the culture media in both the upper and lower chambers. As a control, DMSO alone was added to the media. In all of the experiments, the final DMSO concentration was adjusted to 0.2%.
After the resulting products were cultured at 37° C. under 5% CO2 for 22 hours, the chambers were removed, and the culture media were removed. […] After staining, the inserts were cut out with a blade to prepare slides, and the cells were counted under an optical microscope.
The results were evaluated based on percent cell invasion (%: Invasion) and percent inhibition (%: inhibition). The percent cell invasion was obtained by converting the number of invading cells under each condition to percentage, taking the number of invading cells in the control, to which DMSO was added alone, as 100%; and the percent inhibition was obtained by deducting the percent cell invasion from 100.

Row | pIC50 [2] | pIC50 [3] | pIC50 ([4]; FIG. 11) | selectivity of GEF inhibition to DOCK1 versus DOCK2 and DOCK5 ([4]; from IC50 values for DOCK1, DOCK2, DOCK5) | Structure (SMILES) | dorsal ruffle formation [1] | peripheral ruffle formation [1] | inhibition of cancer cell (3LL) invasion [5]
1 | 4.41 | 4.83 | 4.70 | no selectivity | O=C1NN(c2ccccc2)C(=O)C1=CC=Cc1ccccc1Cl [CPYPP, reference compound] | inhibited both peripheral ruffle formation and dorsal ruffle formation | inhibited both peripheral ruffle formation and dorsal ruffle formation | 
2 |  |  |  |  | Cc1cc(C(=O)Cn2cc(S(=O)(=O)N3CCCC3)ccc2=O)c(C)n1Cc1ccc(F)cc1 [Compound T-070444, 1-(2-(1-(4-fluorobenzyl)-2,5-dimethyl-1H-pyrrol-3-yl)-2-oxoethyl)-5-(pyrrolidin-1-ylsulfonyl)pyridin-2(1H)-one] | significantly inhibited | occurred in a similar manner to that of the control | 
3 |  |  |  |  | O=C(Cn1cc(S(=O)(=O)N2CCCC2)ccc1=O)c1ccc(-c2ccc(C(F)(F)F)cc2)cc1 [TS-16, 1-(2-oxo-2-(4′-(trifluoromethyl)-[1,1′-biphenyl]-4-yl)ethyl)-5-(pyrrolidin-1-ylsulfonyl)pyridin-2(1H)-one] |  |  | significantly excellent inhibitory effect
